{"source": "patent US9604998B2", "about": "“Inhibitors of the renal outer medullary potassium channel” (MERCK SHARP & DOHME CORP., priority 2013, dated 2017)"}
{"biological_target": "Kir1.1 (ROMK1) (Homo sapiens (Human), UniProt P48048)", "sequence (P48048 whole entry, species assumed)": "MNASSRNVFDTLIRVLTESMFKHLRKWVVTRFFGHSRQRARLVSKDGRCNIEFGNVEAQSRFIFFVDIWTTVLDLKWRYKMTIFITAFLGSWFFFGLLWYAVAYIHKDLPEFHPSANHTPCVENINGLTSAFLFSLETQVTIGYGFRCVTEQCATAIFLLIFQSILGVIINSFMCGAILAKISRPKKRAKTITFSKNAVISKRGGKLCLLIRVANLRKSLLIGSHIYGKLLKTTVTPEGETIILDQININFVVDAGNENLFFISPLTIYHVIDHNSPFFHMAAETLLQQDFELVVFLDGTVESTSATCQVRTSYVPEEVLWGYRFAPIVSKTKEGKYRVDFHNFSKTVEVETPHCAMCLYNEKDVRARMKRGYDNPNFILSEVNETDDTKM", "assay": "Electrophysiology Assay (whole cell voltage clamp, IonWorks Quattro)", "assay_type": "cell-based", "conditions": "Chinese hamster ovary cells stably expressing Kir1.1; block during voltage step to 0 mV; read-out: Electrophysiology IC50", "description": "Chinese hamster ovary cells stably expressing Kir1.1 channels were maintained in T-75 flasks in cell culture media in a humidified 10% CO2 incubator at 37° C. Prior to an experiment, Kir1.1 expression was induced by overnight incubation with 1 mM sodium butyrate. […] After centrifugation, the cell pellet was resuspended in approximately 4.0 mL of bath solution and placed in the IonWorks instrument. The intracellular solution consisted of (in mM): 80 K gluconate, 40 KCl, 20 KF, 3.2 MgCl2, 3 EGTA, 5 Hepes, pH 7.4. Electrical access to the cytoplasm was achieved by perforation in 0.13 mg/mL amphotericin B for 4 min. […] Voltage protocols and current recordings were performed using the IonWorks HT software/hardware system. Currents were sampled at 1 kHz. No correction for liquid junction potentials was used. The test pulse, consisting of a 100 ms step to 0 mV from a holding potential of −70 mV, followed by a 100 ms voltage ramp from −70 mV to +70 mV, was applied before and after a 6 min compound incubation period. Test compounds were prepared by diluting DMSO stock solutions into the bath solution at 3× the final concentration and placed in the instrument in 96-well polypropylene plates. Current amplitudes were measured using the IonWorks software.", "units": {"IC50": "nM"}}
{"smiles": "Cc1c([C@H]2CN3CCN(CCc4ccc5c(c4C)COC5=O)C[C@@H]3CO2)ccc(F)c1C#N", "note": "[Example 77]", "IC50": 70}
{"smiles": "COc1cc(CCN2CCN3C[C@H](c4ccc5c(c4C)COC5=O)OC[C@@H]3C2)ccc1C#N", "note": "[Example 60]", "IC50": 180}
{"smiles": "Cc1c(CCN2CCN3C[C@@H](c4ccc5c(c4C)COC5=O)OC[C@H]3C2)ccc2c1COC2=O", "note": "[Example 68]", "IC50": 140}
{"smiles": "COc1cc([C@H]2CN3CCN(CCc4ccc5c(c4C)COC5=O)C[C@H]3CO2)ccc1C#N", "note": "[Example 74]", "IC50": 80}
{"smiles": "COc1cc(CCN2CCN3C[C@@H](c4ccc5c(c4)COC5=O)OC[C@@H]3C2)ccc1C#N", "note": "[Example 58]", "IC50": 120}
{"smiles": "COc1cc(CCN2CCN3C[C@H](c4ccc5c(c4)COC5=O)OC[C@@H]3C2)ccc1C#N", "note": "[Example 59]", "IC50": 40}
{"smiles": "COc1cc(CCN2CCN3C[C@@H](c4ccc5c(c4)C[C@H](C)OC5=O)OC[C@@H]3C2)ccc1C#N", "note": "[Example 85]", "IC50": 90}
{"smiles": "COc1cc(F)c(CCN2CCN3C[C@@H](c4ccc5c(c4C)COC5=O)OC[C@@H]3C2)cc1C#N", "note": "[Example 84]", "IC50": 50}
{"smiles": "Cc1c(CCN2CCN3C[C@H](c4ccc5c(c4C)COC5=O)OC[C@H]3C2)ccc2c1COC2=O", "note": "[Example 67]", "IC50": 70}
{"smiles": "Cc1c([C@@H]2CN3CCN(CC4OCCc5c4ccc4c5COC4=O)C[C@H]3CO2)ccc2c1COC2=O", "note": "(stereo partly drawn) [Example 109, 6-{[(3R,9aS)-3-(4-methyl-1-oxo-1,3-dihydro-2-benzofuran-5-yl)hexahydropyrazino[2,1-c][1,4]oxazin-8(1H)-yl]methyl}-8,9-dihydro-1H-furo[3,4-f]isochromen-3(6H)-one]", "IC50": 50}
{"smiles": "O=C1OCc2cc(CCN3CCN4C[C@@H](c5ccc6c(c5)COC6=O)OC[C@@H]4C3)ccc21", "note": "[Example 62]", "IC50": 40}
{"smiles": "Cc1c([C@@H]2CN3CCN(CCc4ccc5c(c4C)COC5=O)C[C@@H]3CO2)ccc(F)c1C#N", "note": "[Example 78]", "IC50": 70}
